# pIC50: −log10 of the molar value. Where a SMILES comes first, the peptide text is derived from it. Bridges are numbered along the chain shown (N, C = ends). [ ]: non-standard residue; d: D form. Phe(3,4,5-F3) = N[C@@H](Cc1cc(F)c(F)c(F)c1)C(=O)O; d(cisHyp) = O=C(O)[C@H]1C[C@@H](O)CN1; NMeF = CN[C@@H](Cc1ccccc1)C(=O)O; NMeNle = CCCC[C@H](NC)C(=O)O; Orn = NCCC[C@H](N)C(=O)O; Dab = NCC[C@H](N)C(=O)O; Dap = NC[C@H](N)C(=O)O
# Biological target: T1, Human PD-L1/PD-1 (Homo sapiens, UniProt Q9NZQ7)
# T1 construct: TVMV protease cleavage site (C); made in house; host or cells: HEK293T cells
# Test: HTRF Human PD-L1/PD-1 binding assay (PD-1-Ig/PD-L1-His)
# Conditions: PD-L1-His 10 nM, PD-1-Ig 20 nM; class symbol; read-out: HTRF Human PD-L1/PD-1 Binding Assay IC50 Range
# Procedure, shortened: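 Competition of macrocyclic peptides for PD-1/PD-L1 binding measured by HTRF in dPBS containing 0.1% BSA and 0.05% Tween-20. Compound and PD-L1-His (10 nM final) incubated 15 min before PD-1-Ig (20 nM final) and a further 15 min.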
# T1 sequence (Q9NZQ7 with tags, fused parts or gaps): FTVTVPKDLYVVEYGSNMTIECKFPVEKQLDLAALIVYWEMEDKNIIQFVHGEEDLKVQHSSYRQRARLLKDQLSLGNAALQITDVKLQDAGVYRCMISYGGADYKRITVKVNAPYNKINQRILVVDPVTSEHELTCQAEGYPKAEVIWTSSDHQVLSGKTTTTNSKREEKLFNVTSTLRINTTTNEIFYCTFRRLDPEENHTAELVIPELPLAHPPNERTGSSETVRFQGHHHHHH
row,pIC50,SMILES
1,8.00 to 9.00,"CCCC[C@H]1C(=O)N2C[C@H](O)C[C@@H]2C(=O)N[C@@H](CC(=O)O)C(=O)N[C@@H](C(C)C)C(=O)N(C)[C@@H](Cc2ccccc2)C(=O)N[C@@H](Cc2ccc(O)cc2)C(=O)N2C[C@H](O)C[C@@H]2C(=O)N[C@@H](Cc2c[nH]c3ccccc23)C(=O)N[C@@H](Cc2ccc(O)cc2)C(=O)N[C@@H](CCCCN)C(=O)N[C@H](C(=O)NCC(N)=O)CSCC(=O)N[C@@H](Cc2cc(F)c(F)c(F)c2)C(=O)N(C)[C@@H](Cc2ccccc2)C(=O)N1C [Example 9322] ({CH2CO}-[Phe(3,4,5-F3)][NMeF][NMeNle][d(cisHyp)]DV[NMeF]Y[d(cisHyp)]WYKCG-NH2; thioether N-13)"
2,8.00 to 9.00,"CCCC[C@H]1C(=O)N2C[C@H](O)C[C@@H]2C(=O)N[C@@H](CC(=O)O)C(=O)N[C@@H](C(C)C)C(=O)N(C)[C@@H](Cc2ccccc2)C(=O)N[C@@H](Cc2ccc(O)cc2)C(=O)N2C[C@H](O)C[C@@H]2C(=O)N[C@@H](Cc2c[nH]c3ccccc23)C(=O)N[C@@H](Cc2ccc(O)cc2)C(=O)N[C@@H](CCCN)C(=O)N[C@H](C(=O)NCC(N)=O)CSCC(=O)N[C@@H](Cc2cc(F)c(F)c(F)c2)C(=O)N(C)[C@@H](Cc2ccccc2)C(=O)N1C [Example 9323] ({CH2CO}-[Phe(3,4,5-F3)][NMeF][NMeNle][d(cisHyp)]DV[NMeF]Y[d(cisHyp)]WY[Orn]CG-NH2; thioether N-13)"
3,8.00 to 9.00,"CCCC[C@H]1C(=O)N2C[C@H](O)C[C@@H]2C(=O)N[C@@H](CC(=O)O)C(=O)N[C@@H](C(C)C)C(=O)N(C)[C@@H](Cc2ccccc2)C(=O)N[C@@H](Cc2ccc(O)cc2)C(=O)N2C[C@H](O)C[C@@H]2C(=O)N[C@@H](Cc2c[nH]c3ccccc23)C(=O)N[C@@H](Cc2ccc(O)cc2)C(=O)N[C@@H](CCN)C(=O)N[C@H](C(=O)NCC(N)=O)CSCC(=O)N[C@@H](Cc2cc(F)c(F)c(F)c2)C(=O)N(C)[C@@H](Cc2ccccc2)C(=O)N1C [Example 9324] ({CH2CO}-[Phe(3,4,5-F3)][NMeF][NMeNle][d(cisHyp)]DV[NMeF]Y[d(cisHyp)]WY[Dab]CG-NH2; thioether N-13)"
4,8.00 to 9.00,"CCCC[C@H]1C(=O)N2C[C@H](O)C[C@@H]2C(=O)N[C@@H](CC(=O)O)C(=O)N[C@@H](C(C)C)C(=O)N(C)[C@@H](Cc2ccccc2)C(=O)N[C@@H](Cc2ccc(O)cc2)C(=O)N2C[C@H](O)C[C@@H]2C(=O)N[C@@H](Cc2c[nH]c3ccccc23)C(=O)N[C@@H](Cc2ccc(O)cc2)C(=O)N[C@@H](CN)C(=O)N[C@H](C(=O)NCC(N)=O)CSCC(=O)N[C@@H](Cc2cc(F)c(F)c(F)c2)C(=O)N(C)[C@@H](Cc2ccccc2)C(=O)N1C [Example 9325] ({CH2CO}-[Phe(3,4,5-F3)][NMeF][NMeNle][d(cisHyp)]DV[NMeF]Y[d(cisHyp)]WY[Dap]CG-NH2; thioether N-13)"
5,7.00 to 8.00,"CCCC[C@H]1C(=O)N2C[C@H](O)C[C@@H]2C(=O)N[C@@H](CC(=O)O)C(=O)N[C@@H](C(C)C)C(=O)N(C)[C@@H](Cc2ccccc2)C(=O)N[C@@H](Cc2ccc(O)cc2)C(=O)N2C[C@H](O)C[C@@H]2C(=O)N[C@@H](Cc2c[nH]c3ccccc23)C(=O)N[C@@H](Cc2ccc(O)cc2)C(=O)N[C@@H](CCC(=O)O)C(=O)N[C@H](C(=O)NCC(N)=O)CSCC(=O)N[C@@H](Cc2cc(F)c(F)c(F)c2)C(=O)N(C)[C@@H](Cc2ccccc2)C(=O)N1C [Example 9326] ({CH2CO}-[Phe(3,4,5-F3)][NMeF][NMeNle][d(cisHyp)]DV[NMeF]Y[d(cisHyp)]WYECG-NH2; thioether N-13)"
6,7.00 to 8.00,"CCCC[C@H]1C(=O)N2C[C@H](O)C[C@@H]2C(=O)N[C@@H](CC(=O)O)C(=O)N[C@@H](C(C)C)C(=O)N(C)[C@@H](Cc2ccccc2)C(=O)N[C@@H](Cc2ccc(O)cc2)C(=O)N2C[C@H](O)C[C@@H]2C(=O)N[C@@H](Cc2c[nH]c3ccccc23)C(=O)N[C@@H](Cc2ccc(O)cc2)C(=O)N[C@@H](CC(=O)O)C(=O)N[C@H](C(=O)NCC(N)=O)CSCC(=O)N[C@@H](Cc2cc(F)c(F)c(F)c2)C(=O)N(C)[C@@H](Cc2ccccc2)C(=O)N1C [Example 9327] ({CH2CO}-[Phe(3,4,5-F3)][NMeF][NMeNle][d(cisHyp)]DV[NMeF]Y[d(cisHyp)]WYDCG-NH2; thioether N-13)"
7,7.00 to 8.00,"CCCC[C@H]1C(=O)N2C[C@H](O)C[C@@H]2C(=O)N[C@@H](CC(=O)O)C(=O)N[C@@H](C(C)C)C(=O)N(C)[C@@H](Cc2ccccc2)C(=O)N[C@@H](Cc2ccc(O)cc2)C(=O)N2C[C@H](O)C[C@@H]2C(=O)N[C@@H](Cc2c[nH]c3ccccc23)C(=O)N[C@@H](Cc2ccc(O)cc2)C(=O)N[C@@H](CCC(N)=O)C(=O)N[C@H](C(=O)NCC(N)=O)CSCC(=O)N[C@@H](Cc2cc(F)c(F)c(F)c2)C(=O)N(C)[C@@H](Cc2ccccc2)C(=O)N1C [Example 9328] ({CH2CO}-[Phe(3,4,5-F3)][NMeF][NMeNle][d(cisHyp)]DV[NMeF]Y[d(cisHyp)]WYQCG-NH2; thioether N-13)"
8,8.00 to 9.00,"CCCC[C@H]1C(=O)N2C[C@H](O)C[C@@H]2C(=O)N[C@@H](CC(=O)O)C(=O)N[C@@H](C(C)C)C(=O)N(C)[C@@H](Cc2ccccc2)C(=O)N[C@@H](Cc2ccc(O)cc2)C(=O)N2C[C@H](O)C[C@@H]2C(=O)N[C@@H](Cc2c[nH]c3ccccc23)C(=O)N[C@@H](Cc2ccc(O)cc2)C(=O)N[C@@H](CC(N)=O)C(=O)N[C@H](C(=O)NCC(N)=O)CSCC(=O)N[C@@H](Cc2cc(F)c(F)c(F)c2)C(=O)N(C)[C@@H](Cc2ccccc2)C(=O)N1C [Example 9329] ({CH2CO}-[Phe(3,4,5-F3)][NMeF][NMeNle][d(cisHyp)]DV[NMeF]Y[d(cisHyp)]WYNCG-NH2; thioether N-13)"
9,7.00 to 8.00,"CCCC[C@H]1C(=O)N2C[C@H](O)C[C@@H]2C(=O)N[C@@H](CC(=O)O)C(=O)N[C@@H](C(C)C)C(=O)N(C)[C@@H](Cc2ccccc2)C(=O)N[C@@H](CCC(=O)O)C(=O)N2C[C@H](O)C[C@@H]2C(=O)N[C@@H](Cc2c[nH]c3ccccc23)C(=O)N[C@@H](Cc2ccc(O)cc2)C(=O)N[C@@H](CC(C)C)C(=O)N[C@H](C(=O)NCC(N)=O)CSCC(=O)N[C@@H](Cc2cc(F)c(F)c(F)c2)C(=O)N(C)[C@@H](Cc2ccccc2)C(=O)N1C [Example 9330] ({CH2CO}-[Phe(3,4,5-F3)][NMeF][NMeNle][d(cisHyp)]DV[NMeF]E[d(cisHyp)]WYLCG-NH2; thioether N-13)"
10,8.00 to 9.00,"CCCC[C@H]1C(=O)N2C[C@H](O)C[C@@H]2C(=O)N[C@@H](CC(=O)O)C(=O)N[C@@H](C(C)C)C(=O)N(C)[C@@H](Cc2ccccc2)C(=O)N[C@@H](CCC(=O)O)C(=O)N2C[C@H](O)C[C@@H]2C(=O)N[C@@H](Cc2c[nH]c3ccccc23)C(=O)N[C@@H](Cc2ccc(O)cc2)C(=O)N[C@@H](CCCCN)C(=O)N[C@H](C(=O)NCC(N)=O)CSCC(=O)N[C@@H](Cc2cc(F)c(F)c(F)c2)C(=O)N(C)[C@@H](Cc2ccccc2)C(=O)N1C [Example 9331] ({CH2CO}-[Phe(3,4,5-F3)][NMeF][NMeNle][d(cisHyp)]DV[NMeF]E[d(cisHyp)]WYKCG-NH2; thioether N-13)"
11,7.00 to 8.00,"CCCC[C@H]1C(=O)N2C[C@H](O)C[C@@H]2C(=O)N[C@@H](CC(=O)O)C(=O)N[C@@H](C(C)C)C(=O)N(C)[C@@H](Cc2ccccc2)C(=O)N[C@@H](CCC(=O)O)C(=O)N2C[C@H](O)C[C@@H]2C(=O)N[C@@H](Cc2c[nH]c3ccccc23)C(=O)N[C@@H](Cc2ccc(O)cc2)C(=O)N[C@@H](CCCN)C(=O)N[C@H](C(=O)NCC(N)=O)CSCC(=O)N[C@@H](Cc2cc(F)c(F)c(F)c2)C(=O)N(C)[C@@H](Cc2ccccc2)C(=O)N1C [Example 9332] ({CH2CO}-[Phe(3,4,5-F3)][NMeF][NMeNle][d(cisHyp)]DV[NMeF]E[d(cisHyp)]WY[Orn]CG-NH2; thioether N-13)"
12,7.00 to 8.00,"CCCC[C@H]1C(=O)N2C[C@H](O)C[C@@H]2C(=O)N[C@@H](CC(=O)O)C(=O)N[C@@H](C(C)C)C(=O)N(C)[C@@H](Cc2ccccc2)C(=O)N[C@@H](CCC(=O)O)C(=O)N2C[C@H](O)C[C@@H]2C(=O)N[C@@H](Cc2c[nH]c3ccccc23)C(=O)N[C@@H](Cc2ccc(O)cc2)C(=O)N[C@@H](CCN)C(=O)N[C@H](C(=O)NCC(N)=O)CSCC(=O)N[C@@H](Cc2cc(F)c(F)c(F)c2)C(=O)N(C)[C@@H](Cc2ccccc2)C(=O)N1C [Example 9333] ({CH2CO}-[Phe(3,4,5-F3)][NMeF][NMeNle][d(cisHyp)]DV[NMeF]E[d(cisHyp)]WY[Dab]CG-NH2; thioether N-13)"
13,7.00 to 8.00,"CCCC[C@H]1C(=O)N2C[C@H](O)C[C@@H]2C(=O)N[C@@H](CC(=O)O)C(=O)N[C@@H](C(C)C)C(=O)N(C)[C@@H](Cc2ccccc2)C(=O)N[C@@H](CCC(=O)O)C(=O)N2C[C@H](O)C[C@@H]2C(=O)N[C@@H](Cc2c[nH]c3ccccc23)C(=O)N[C@@H](Cc2ccc(O)cc2)C(=O)N[C@@H](CN)C(=O)N[C@H](C(=O)NCC(N)=O)CSCC(=O)N[C@@H](Cc2cc(F)c(F)c(F)c2)C(=O)N(C)[C@@H](Cc2ccccc2)C(=O)N1C [Example 9334] ({CH2CO}-[Phe(3,4,5-F3)][NMeF][NMeNle][d(cisHyp)]DV[NMeF]E[d(cisHyp)]WY[Dap]CG-NH2; thioether N-13)"
14,7.00 to 8.00,"CCCC[C@H]1C(=O)N2C[C@H](O)C[C@@H]2C(=O)N[C@@H](CC(=O)O)C(=O)N[C@@H](C(C)C)C(=O)N(C)[C@@H](Cc2ccccc2)C(=O)N[C@@H](CCC(=O)O)C(=O)N2C[C@H](O)C[C@@H]2C(=O)N[C@@H](Cc2c[nH]c3ccccc23)C(=O)N[C@@H](Cc2ccc(O)cc2)C(=O)N[C@@H](CCC(=O)O)C(=O)N[C@H](C(=O)NCC(N)=O)CSCC(=O)N[C@@H](Cc2cc(F)c(F)c(F)c2)C(=O)N(C)[C@@H](Cc2ccccc2)C(=O)N1C [Example 9335] ({CH2CO}-[Phe(3,4,5-F3)][NMeF][NMeNle][d(cisHyp)]DV[NMeF]E[d(cisHyp)]WYECG-NH2; thioether N-13)"

# Source: patent US10538555B2, “Macrocyclic inhibitors of the PD-1/PD-L1 and CD80(B7-1)/PD-L1 protein/protein interactions” (BRISTOL-MYERS SQUIBB COMPANY, priority 2014, dated 2020)
